Experimental data published in ChEMBL document CHEMBL1134243, “2-[N1-2-pyrimidyl-aminobenzenesulfonamido] ethyl 4-bis(2-chloroethyl) aminophenyl butyrate: a potent antitumor agent” (Bioorg Med Chem Lett, 2001).

What was measured:
[1] = In vivo antitumor activity against murine S-180 sarcoma at a dose of 4.8 mg/kg administered intraperitoneally 7qd in mice expressed as percent inhibition; format: functional; details: Mus musculus, S-180, ip, route intraperitoneal
[2] = In vivo antitumor activity against murine S-180 sarcoma at a dose of 13 mg/kg administered intraperitoneally 7qd in mice expressed as percent inhibition; format: functional; details: Mus musculus, S-180, ip, route intraperitoneal
[3] = In vivo antitumor activity against murine S-180 sarcoma at a dose of 2.5 mg/kg administered intraperitoneally 7qd in mice expressed effect on tumor weight; format: functional, Mus musculus; details: route intraperitoneal
[4] = In vivo antitumor activity against murine S-180 sarcoma at a dose of 3.3 mg/kg administered intraperitoneally 7qd in mice expressed as percent inhibition; format: functional; details: Mus musculus, S-180, ip, route intraperitoneal
[5] = In vivo antitumor activity against murine S-180 sarcoma at a dose of 13 mg/kg administered intraperitoneally 7qd in mice expressed effect on tumor weight; format: functional, Mus musculus; details: route intraperitoneal
[6] = In vivo antitumor activity against murine S-180 sarcoma at a dose of 3.3 mg/kg administered intraperitoneally 7qd in mice; Body wt initial/Final = 19.6/22.5; format: functional, Mus musculus; details: route intraperitoneal
[7] = Antitumor activity against murine S-180 sarcoma at dose of 0.004(mmol/kg); format: functional, Mus musculus
[8] = In vivo antitumor activity against murine S-180 sarcoma at a dose of 9.6 mg/kg administered intraperitoneally 7qd in mice; Body wt initial/Final = 19.6/18.3; format: functional, Mus musculus; details: route intraperitoneal
[9] = In vivo antitumor activity against murine S-180 sarcoma at a dose of 6.5 mg/kg administered intraperitoneally 7qd in mice expressed as percent inhibition; format: functional; details: Mus musculus, S-180, ip, route intraperitoneal
[10] = In vivo antitumor activity against murine S-180 sarcoma at a dose of 3.3 mg/kg administered intraperitoneally 7qd in mice expressed effect on tumor weight; format: functional, Mus musculus; details: route intraperitoneal
[11] = In vivo antitumor activity against murine S-180 sarcoma at a dose of 2.5 mg/kg administered intraperitoneally 7qd in mice; Body wt initial/Final = 19.9/23.4; format: functional, Mus musculus; details: route intraperitoneal
[12] = Antitumor activity against murine S-180 sarcoma at dose of 0.022(mmol/kg); format: functional, Mus musculus
[13] = In vivo antitumor activity against murine S-180 sarcoma at a dose of 6.5 mg/kg administered intraperitoneally 7qd in Male TA1 mice; 10 survived out of 10 mice; format: functional, Mus musculus; details: route intraperitoneal
[14] = In vivo antitumor activity against murine S-180 sarcoma at a dose of 4.8 mg/kg administered intraperitoneally 7qd in mice; Body wt initial/Final = 19.8/20.7; format: functional, Mus musculus; details: route intraperitoneal
[15] = In vivo antitumor activity against murine S-180 sarcoma at a dose of 4.8 mg/kg administered intraperitoneally 7qd in Male TA1 mice; 10 survived out of 10 mice; format: functional, Mus musculus; details: route intraperitoneal
[16] = In vivo antitumor activity against murine S-180 sarcoma at a dose of 13 mg/kg administered intraperitoneally 7qd in mice; Body wt initial/Final = 19.8/18.0; format: functional, Mus musculus; details: route intraperitoneal
[17] = In vivo antitumor activity against murine S-180 sarcoma at a dose of 9.6 mg/kg administered intraperitoneally 7qd in Male TA1 mice; 9 survived out of 10 mice; format: functional, Mus musculus; details: route intraperitoneal
[18] = In vivo antitumor activity against murine S-180 sarcoma at a dose of 9.6 mg/kg administered intraperitoneally 7qd in mice expressed as percent inhibition; format: functional; details: Mus musculus, S-180, ip, route intraperitoneal
[19] = In vivo antitumor activity against murine S-180 sarcoma at a dose of 6.5 mg/kg administered intraperitoneally 7qd in mice expressed effect on tumor weight; format: functional, Mus musculus; details: route intraperitoneal
[20] = In vivo antitumor activity against murine S-180 sarcoma at a dose of 2.5 mg/kg administered intraperitoneally 7qd in mice expressed as percent inhibition; format: functional; details: Mus musculus, S-180, ip, route intraperitoneal
[21] = Lethal dose at a concentration of 0.225 mmol/kg in mice administered intraperitoneally; format: toxicity, organism-based; details: mouse, in vivo, ip
[22] = In vivo antitumor activity against murine S-180 sarcoma at a dose of 3.3 mg/kg administered intraperitoneally 7qd in Male TA1 mice; 10 survived out of 10 mice; format: functional, Mus musculus; details: route intraperitoneal
[23] = Therapeutic Index was determined; details: read-out: TI
Mus musculus [24] = assay: Antitumor activity against murine S-180 sarcoma at dose of LD50 X 1/40 equal toxicity; format: functional
[25] = In vivo antitumor activity against murine S-180 sarcoma at a dose of 13 mg/kg administered intraperitoneally 7qd in Male TA1 mice; 9 survived out of 10 mice; format: functional, Mus musculus; details: route intraperitoneal
[26] = Antitumor activity against murine S-180 sarcoma at dose of 0.008(mmol/kg); format: functional, Mus musculus
[27] = In vivo antitumor activity against murine S-180 sarcoma at a dose of 9.6 mg/kg administered intraperitoneally 7qd in mice expressed effect on tumor weight; format: functional, Mus musculus; details: route intraperitoneal
[28] = In vivo antitumor activity against murine S-180 sarcoma at a dose of 6.5 mg/kg administered intraperitoneally 7qd in mice; Body wt initial/Final = 19.8/19.5; format: functional, Mus musculus; details: route intraperitoneal
[29] = In vivo antitumor activity against murine S-180 sarcoma at a dose of 4.8 mg/kg administered intraperitoneally 7qd in mice expressed effect on tumor weight; format: functional, Mus musculus; details: route intraperitoneal
Mus musculus [30] = assay: Antitumor activity against murine S-180 sarcoma at dose of LD50 X 1/10 equal toxicity; format: functional
[31] = Antitumor activity against murine S-180 sarcoma at dose of 0.016(mmol/kg); format: functional, Mus musculus
[32] = In vivo antitumor activity against murine S-180 sarcoma at a dose of 2.5 mg/kg administered intraperitoneally 7qd in Male TA1 mice; 10 survived out of 10 mice; format: functional, Mus musculus; details: route intraperitoneal
Mus musculus [33] = assay: Antitumor activity against murine S-180 sarcoma at dose of LD50 X 1/20 equal toxicity; format: functional
[34] = In vivo antitumor activity against murine S-180 sarcoma at a dose of 1.3 mg/kg administered intraperitoneally 7qd in mice expressed effect on tumor weight; format: functional, Mus musculus; details: route intraperitoneal
[35] = Lethal dose at a concentration of 0.163 mmol/kg in mice administered intraperitoneally; format: toxicity, organism-based; details: mouse, in vivo, ip
[36] = In vivo antitumor activity against murine S-180 sarcoma at a dose of 5 mg/kg administered intraperitoneally 7qd in Male TA1 mice; 9 survived out of 10 mice; format: functional, Mus musculus; details: route intraperitoneal
[37] = In vivo antitumor activity against murine S-180 sarcoma at a dose of 1.3 mg/kg administered intraperitoneally 7qd in Male TA1 mice; 10 survived out of 10 mice; format: functional, Mus musculus; details: route intraperitoneal
[38] = In vivo antitumor activity against murine S-180 sarcoma at a dose of 1.3 mg/kg administered intraperitoneally 7qd in mice expressed as percent inhibition; format: functional; details: Mus musculus, S-180, ip, route intraperitoneal
[39] = In vivo antitumor activity against murine S-180 sarcoma at a dose of 6.8 mg/kg administered intraperitoneally 7qd in Male TA1 mice; 9 survived out of 10 mice; format: functional, Mus musculus; details: route intraperitoneal
[40] = In vivo antitumor activity against murine S-180 sarcoma at a dose of 5 mg/kg administered intraperitoneally 7qd in mice expressed effect on tumor weight; format: functional, Mus musculus; details: route intraperitoneal
[41] = In vivo antitumor activity against murine S-180 sarcoma at a dose of 6.8 mg/kg administered intraperitoneally 7qd in mice; Body wt initial/Final = 19.8/18.4; format: functional, Mus musculus; details: route intraperitoneal
[42] = In vivo antitumor activity against murine S-180 sarcoma at a dose of 6.8 mg/kg administered intraperitoneally 7qd in mice expressed effect on tumor weight; format: functional, Mus musculus; details: route intraperitoneal
[43] = In vivo antitumor activity against murine S-180 sarcoma at a dose of 1.3 mg/kg administered intraperitoneally 7qd in mice; Body wt initial/Final = 19.9/23.4; format: functional, Mus musculus; details: route intraperitoneal
[44] = In vivo antitumor activity against murine S-180 sarcoma at a dose of 5 mg/kg administered intraperitoneally 7qd in mice expressed as percent inhibition; format: functional; details: Mus musculus, S-180, ip, route intraperitoneal
[45] = In vivo antitumor activity against murine S-180 sarcoma at a dose of 5 mg/kg administered intraperitoneally 7qd in mice; Body wt initial/Final = 19.7/19.1; format: functional, Mus musculus; details: route intraperitoneal
[46] = In vivo antitumor activity against murine S-180 sarcoma at a dose of 2.5 mg/kg administered intraperitoneally 7qd in mice; Body wt initial/Final = 20.0/21.3; format: functional, Mus musculus; details: route intraperitoneal
[47] = In vivo antitumor activity against murine S-180 sarcoma at a dose of 6.8 mg/kg administered intraperitoneally 7qd in mice expressed as percent inhibition; format: functional; details: Mus musculus, S-180, ip, route intraperitoneal

## Nc1ccc(S(=O)(=O)N(CCOC(=O)CCCc2ccc(N(CCCl)CCCl)cc2)c2ncccn2)cc1
[1]
  inhibition in vivo at 4.8 mg/kg: 63.4%
[2]
  inhibition in vivo at 13 mg/kg: 81.5%
[3]
  Tumor weight: 1.15
[4]
  inhibition in vivo at 3.3 mg/kg: 50.7%
[5]
  Tumor weight: 0.41
[6]
  Body weight In. / Fi.: 19.6 g
[7]
  Antitumour activity: 47.9
[8]
  Body weight In. / Fi.: 19.6 g
[9]
  inhibition in vivo at 6.5 mg/kg: 74.2%
[10]
  Tumor weight: 1.09
[11]
  Body weight In. / Fi.: 19.9 g
[12]
  Antitumour activity: 81.5
[13]
  Mice In. / Fi.: 10
[14]
  Body weight In. / Fi.: 19.8 g
[15]
  Mice In. / Fi.: 10
[16]
  Body weight In. / Fi.: 19.8 g
[17]
  Mice In. / Fi.: 9
[18]
  inhibition in vivo at 9.6 mg/kg: 76.9%
[19]
  Tumor weight: 0.57
[20]
  inhibition in vivo at 2.5 mg/kg: 48%
[21]
  LD50: 131 mg/kg
[22]
  Mice In. / Fi.: 10
[23]
  selectivity ratio: 47.5
Mus musculus [24]
  LD50 x 1/40: 50.7
[25]
  Mice In. / Fi.: 9
[26]
  Antitumour activity: 63.4
[27]
  Tumor weight: 0.51
[28]
  Body weight In. / Fi.: 19.8 g
[29]
  Tumor weight: 0.81
Mus musculus [30]
  LD50 x 1/10: 81.5
[31]
  Antitumour activity: 76.9
[32]
  Mice In. / Fi.: 10
Mus musculus [33]
  LD50 x 1/20: 74.2

## O=C(O)CCCc1ccc(N(CCCl)CCCl)cc1 [CHLORAMBUCIL]
[3]
  Tumor weight: 1.04
[34]
  Tumor weight: 1.39
[35]
  LD50: 49.6 mg/kg
[7]
  Antitumour activity: 37.1
[12]
  Antitumour activity: 77.4
[36]
  Mice In. / Fi.: 9
[37]
  Mice In. / Fi.: 10
[38]
  inhibition in vivo at 1.3 mg/kg: 37.1%
[20]
  inhibition in vivo at 2.5 mg/kg: 52.9%
[39]
  Mice In. / Fi.: 9
[23]
  selectivity ratio: 22.8
[40]
  Tumor weight: 0.59
[41]
  Body weight In. / Fi.: 19.8 g
Mus musculus [24]
  LD50 x 1/40: 37.1
[42]
  Tumor weight: 0.5
[26]
  Antitumour activity: 52.9
Mus musculus [30]
  LD50 x 1/10: 73.3
[43]
  Body weight In. / Fi.: 19.9 g
[44]
  inhibition in vivo at 5 mg/kg: 73.3%
[31]
  Antitumour activity: 73.3
[45]
  Body weight In. / Fi.: 19.7 g
[46]
  Body weight In. / Fi.: 20 g
[32]
  Mice In. / Fi.: 10
[47]
  inhibition in vivo at 6.8 mg/kg: 77.4%
Mus musculus [33]
  LD50 x 1/20: 52.9
